# Reference: PMC10002375, “Synthesis of 3-(2-Alkylthio-4-chloro-5-methylbenzenesulfonyl)-2-(1-phenyl-3-arylprop-2-enylideneamino)guanidine Derivatives with Pro-Apoptotic Activity against Cancer Cells” (International Journal of Molecular Sciences, 2023)
# Key:
# MCF-7 (breast cancer) = test: MTT cell viability assay, MCF-7; assay type: cell-based, human
# From the text: (§1) The cytotoxic activity of the compounds 8–33 has been evaluated in MTT assays against three human cancer cell lines MCF-7 (breast cancer), HeLa (cervical cancer), and HCT-116 (colon cancer) and it was expressed as IC50 values in μM (Table 1).
# All chemicals, if not stated otherwise, were obtained from Sigma-Aldrich (St. Louis, MO, USA). The MCF-7 cell line was purchased from Cell Lines Services (Eppelheim, Germany), the HeLa and HCT-116 cell lines were obtained from the Department of Microbiology, Tumor and Cell Biology, Karolinska Institute (Stockholm, Sweden). Cells were cultured in Dulbecco’s modified Eagle’s medium (DMEM) supplemented with 10% fetal bovine serum, 2 mM glutamine, 100 units/mL penicillin, and 100 μg/mL streptomycin. Cultures were maintained in a humidified atmosphere with 5% CO2 at 37 °C in an incubator (HeraCell, Heraeus, Langenselbold, Germany).
# (§2) Cell viability was determined using the MTT (3-(4,5-dimethylthiazol-2-yl)-2,5-diphenyl-tetrazoliumbromide) assay. Stock solutions of the studied compounds were prepared in 100% DMSO. […] Cells were seeded in 96-well plates at a density of 5 × 10^3 cells/well and treated for 72 h with the examined compounds in the concentration range 1–100 μM (1, 10, 25, 50, and 100 μM). Following treatment, MTT (0.5 mg/mL) was added to the medium and cells were further incubated for 2 h at 37 °C. Cells were lysed with DMSO and the absorbance of the formazan solution was measured at 550 nm with a plate reader (1420 multilabel counter, Victor, Jügesheim, Germany). […] The experiment was performed in triplicate. Values are expressed as the mean ± SD of at least three independent experiments.
# [1] = system: MCF-7, HeLa and HCT-116 cells; test: MTT assay, mean over three tested cancer cell lines; assay type: cell-based, human
# Procedure: as §1
# Although the highest activity of the compounds with hydroxyl groups as the R^2 residue was against colon cancer cells, the inhibition of the growth of breast cancer cells was also remarkable.
# as §2
# HCT-116 cells [2] = test: Cell morphology by light microscopy, HCT-116; assay type: cell-based, human; details: HCT-116, 10 and 25 μM, 72 h
# Procedure: (§3) The evaluation of changes in cell morphology has been performed after incubation with compounds 24 and 31 for 72 h using light microscopy.
# (§4) The HeLa, MCF-7, and HCT-116 cells were seeded on 24-well plates (5 × 10^4/per well) in 1 mL of medium for 24 h. After that time, cells were treated with 24 and 31 for next 72 h. Cells were treated with 10 µM, 25 µM of 24, or 25 µM of 31. As a control, non-treated cells were used. Morphology of cells was observed after 72 h using light microscope Olympus IX83.
# MCF-7 cells [3] = test: Cell cycle distribution by flow cytometry, MCF-7; assay type: cell-based, human; details: for cells in sub-G1 phase: 72 h
# Procedure: (§5) The cell cycle distribution was measured by flow cytometry analysis after incubation of MCF-7, HeLa, and HCT-116 with compounds 24 and 31 for 72 h.
# HeLa cells = test: Cell morphology by light microscopy, HeLa; assay type: cell-based, human; details: 10 and 25 μM, 72 h
# Procedure: as §3, §4
# MCF-7 cells [4] = test: Mitochondrial membrane potential (JC-1, flow cytometry), MCF-7; assay type: cell-based, human; details: MCF-7, 72 h, 24 at 10 or 25 μM, 31 at 25 μM
# From the text: (§6) A decrease in mitochondrial potential is one of the earliest hallmarks of apoptosis. A common method for indication of cells with high and low Δψm is flow cytometry combined with specific fluorescent probes, such as JC-1 (5,5′,6,6′-tetrachloro-1,1′,3,3′-tetraethylbenzimidazolylcarbocyanine iodide). JC-1 accumulates in mitochondria and forms complexes (J aggregates) with red fluorescence in healthy cells with a normal ΔΨm, whereas in apoptotic cells with a low ΔΨm exists as a monomer with green fluorescence.
# (§7) Analyzed cells were seeded into wells of a 24-well plate at a density of 5 × 10^4 cells in 1000 µL, incubated overnight, and then the medium was exchanged for dilutions of reagents 24 and 31. Before the end of 72 h of incubation, MitoProbe JC-1 (25 µM) was added into each plate well. Carbonyl cyanide m-chlorophenylhydrazone CCCP (200 nM) as the mitochondrial oxidative phosphorylation uncoupler was added into the positive control 15 min before JC-1 was added. After 30 min of JC-1 staining, cells were washed with PBS and then trypsinized (Corning® 25-053CI). Cells suspended in PBS were analyzed by flow cytometry at λ excitation (ex) = 488 nm and λ emission (em) = 525/570 nm (LSR II BD Biosciences, San Jose, CA, USA).
# HCT-116 cells [5] = test: Mitochondrial membrane potential (JC-1, flow cytometry), HCT-116; assay type: cell-based, human; details: HCT-116, 72 h, 24 at 10 or 25 μM, 31 at 25 μM
# From the text: as §6, §7
# HaCaT cells = test: MTT assay with non-cancerous HaCaT cell line; assay type: cell-based; details: Homo sapiens, HaCaT, 72 h
# Procedure: The important feature of new cytotoxic agents is their selective activity against cancer cells with a weak impact on the physiology of healthy cells. Determination of the selectivity of compounds 14–19 and 24–29 was done by MTT assay with the non-cancerous HaCaT cell line (Table 2). […] A similar effect was observed also for compound 26. […] Due to the excellent selectivity of compound 30 towards HCT-116 cells and at the same time high cytotoxicity towards this cell line (IC50 = 8 μM); derivative 30 may be a good hit compound for the search for chemotherapeutic agents for the treatment of colon cancer.
# as §2
# HCT-116 cells [6] = test: Cell cycle distribution by flow cytometry, HCT-116; assay type: cell-based, human; details: for cells in sub-G1 phase: 72 h, control 1.15%
# Procedure: as §5
smiles,measurement,setting,value
"Cc1cc(S(=O)(=O)NC(N)=NN=C(C=Cc2ccccc2O)c2ccccc2)c(SCc2ccccc2Cl)cc1Cl [Compound 24, 3-{4-chloro-2-[(2-chlorophenyl)methylthio]-5-methylbenzenesulfonyl}-2-[3-(2-hydroxyphenyl)-1-phenylprop-2-enylideneamino]guanidine]",IC50,"MCF-7 (breast cancer); Homo sapiens, MCF7, MTT, 72 h",12 ± 0.6 µM
same,Selectivity Index MCF-7/HaCaT,"MCF-7 (breast cancer); MCF-7 versus HaCaT, from IC50 values",2.7
same,"selectivity ratio, mean IC50 against cancer cells versus IC50 for HaCaT",[1]; HaCaT versus mean of three cancer cell lines,2.6
same,IC50,"[1]; Homo sapiens, mean of MCF-7, HeLa, HCT-116, MTT, 72 h, read-out: mean IC50 against three tested cell lines",12.7 µM
same,changes in cell morphology,HCT-116 cells [2],"apoptotic-like changes, such as shrinkage of the cells or detachment from the surface"
same,cells in sub-G1 phase,"MCF-7 cells [3]; MCF-7, 10 μM",5.22%
same,cells in sub-G1 phase,"MCF-7 cells [3]; MCF-7, 25 μM",7.53%
same,effect on cell cycle distribution,"MCF-7 cells [3]; MCF-7, 72 h, 24 at 10 and 25 μM, 31 at 25 μM",no significant effect on the cell cycle distribution
same,changes in cell morphology,HeLa cells,"apoptotic-like changes, such as shrinkage of the cells or detachment from the surface"
same,change of mitochondrial membrane potential (ΔΨm),MCF-7 cells [4],remarkable decrease in ΔΨm
same,change of mitochondrial membrane potential (ΔΨm),HCT-116 cells [5],remarkable decrease in ΔΨm
same,IC50,HaCaT cells,33 ± 2 µM
same,cells in sub-G1 phase,"HCT-116 cells [6]; HCT-116, 10 μM",49.69%
same,cells in sub-G1 phase,"HCT-116 cells [6]; HCT-116, 25 μM",65.31%
same,effect on cell cycle distribution,"HCT-116 cells [6]; HCT-116, 72 h, 24 at 10 and 25 μM, 31 at 25 μM",significant increase in the cell distribution in the sub-G1 phase
